According to ChEMBL document CHEMBL4483862, “Open-source discovery of chemical leads for next-generation chemoprotective antimalarials” (2018):

System: Plasmodium berghei
Assay: Luciferase/luciferin-expressing antifolate-resistant parasites were used to infect a culture of HepG2 cells that were pre-incubated with compounds. Infected hepatocytes emit light due to the luciferase reaction. Assay results are presented as the percent inhibition of light emission compared to control. […]
Type: functional
Settings: sporozoite; for IC90: read-out: LUCIFERASE INFECTION ASSAY - IC90
[1] = read-out: LUCIFERASE INFECTION ASSAY - IC50

SMILES | IC90 [µM] | IC50 [1] [µM] | also measured
CC(=O)N(c1nc(/C=C2\CCOc3ccc(F)cc3C2=O)cs1)c1cccc(C)c1C | > 10 |  | IC50 (FFLUC_HILL_SLOPE 1.6, FFLUC_R_SQUARED 0.338, PBLUC_HILL_SLOPE 1.6, PBLUC_R_SQUARED 0.162, read-out: LUCIFERASE INFECTION ASSAY - IC50): > 10 µM
Cc1ccc(NC(=O)c2snnc2C)cc1Cl | > 12.3 |  | IC50 (HEPG2TOX_HILL_SLOPE 16.5, HEPG2TOX_R_SQUARED 0.725, read-out: LUCIFERASE INFECTION ASSAY - IC50): > 12.3 µM
C=CCN(CC(=O)NCc1ccc2c(c1)OCO2)S(=O)(=O)c1ccc(Cl)c(Cl)c1 | > 10 | > 10 | 
Clc1ccc(-c2csc(NCC3CCCO3)n2)cc1 (stereo not drawn) | > 11.2 | > 11.2 | 
Cc1cc2ncc(-c3ccnc(SCC(=O)Nc4cccc(C(F)(F)F)c4)n3)c(C)n2n1 | > 7.2 | > 7.2 | 
Nc1c(NC2CCCCC2)cc(NCCO)c2c1C(=O)c1ccccc1C2=O | > 8.7 |  | IC50 (PBLUC_HILL_SLOPE 3.41, PBLUC_R_SQUARED 0.438, read-out: LUCIFERASE INFECTION ASSAY - IC50): > 8.7 µM
Cc1cc2oc(=O)cc(CN(Cc3ccc(C(=O)NC4CC4)cc3)Cc3ccco3)c2cc1C | 1.83 |  | IC50 (PBLUC_HILL_SLOPE 3.23, PBLUC_R_SQUARED 0.675, read-out: LUCIFERASE INFECTION ASSAY - IC50): 0.928 µM
O=C(CN1CCN(CC(=O)N(Cc2ccccc2)Cc2ccccc2)CC1)Nc1ccc(Cl)c(C(F)(F)F)c1 | > 10 |  | IC50 (PBLUC_HILL_SLOPE 18.3, PBLUC_R_SQUARED 0.38, read-out: LUCIFERASE INFECTION ASSAY - IC50): 9.55 µM
c1ccc(-c2cnc3sc(NCCc4ccncc4)nn23)cc1 | > 10.3 | > 10.3 | 
Cc1nc(SCc2cccc(C(F)(F)F)c2)c2c(-c3cccs3)csc2n1 | > 10 |  | IC50 (FFLUC_HILL_SLOPE 83.3, FFLUC_R_SQUARED 0.372, read-out: LUCIFERASE INFECTION ASSAY - IC50): > 10 µM
Cc1cccc(NC2=C(Cl)C(=O)c3ccccc3C2=O)c1 | 1.4 |  | IC50 (HEPG2TOX_HILL_SLOPE 3.88, HEPG2TOX_R_SQUARED 0.992, PBLUC_HILL_SLOPE 14.7, PBLUC_R_SQUARED 0.858, read-out: LUCIFERASE INFECTION ASSAY - IC50): 1.2 µM
O=C(Nc1cccc(C(F)(F)F)c1)Nc1ccc2nc(-c3ccoc3)nn2c1 | 5.31 |  | IC50 (HEPG2TOX_HILL_SLOPE 8.17, HEPG2TOX_R_SQUARED 0.681, PBLUC_HILL_SLOPE 272, PBLUC_R_SQUARED 0.378, read-out: LUCIFERASE INFECTION ASSAY - IC50): 5.27 µM
COc1ccc(-c2cn3c(-c4ccc(OC)nc4)cnc3cn2)cn1 | > 9.9 |  | IC50 (PBLUC_HILL_SLOPE 11.1, PBLUC_R_SQUARED 0.0252, read-out: LUCIFERASE INFECTION ASSAY - IC50): 9.58 µM
CCCn1c(O)nnc1SCC(=O)NC(C)C12CC3CC(CC(C3)C1)C2 (stereo not drawn) | > 10 | > 10 | 
Nc1ccccc1SC(CC(=O)c1ccccc1)c1ccc([N+](=O)[O-])cc1 (stereo not drawn) | > 8.72 |  | IC50 (PBLUC_HILL_SLOPE 4.35, PBLUC_R_SQUARED 0.338, read-out: LUCIFERASE INFECTION ASSAY - IC50): 8.12 µM
CSc1nnc(-c2ccc(C(C)(C)C)cc2)[nH]1 | 10.9 |  | IC50 (FFLUC_HILL_SLOPE 15.7, FFLUC_R_SQUARED 0.752, PBLUC_HILL_SLOPE 2.05, PBLUC_R_SQUARED 0.759, read-out: LUCIFERASE INFECTION ASSAY - IC50): 3.73 µM
CCCNc1nc(-c2ccc(OC)cc2)c(-c2ccc(OC)cc2)s1 | > 10 |  | IC50 (PBLUC_HILL_SLOPE 15.7, PBLUC_R_SQUARED 0.0413, read-out: LUCIFERASE INFECTION ASSAY - IC50): 9.99 µM
O=C1c2ccccc2SC1(c1nc2ccccc2s1)c1nc2ccccc2s1 | 9.86 |  | IC50 (FFLUC_HILL_SLOPE 17.4, FFLUC_R_SQUARED 0.735, PBLUC_HILL_SLOPE 16.6, PBLUC_R_SQUARED 0.262, read-out: LUCIFERASE INFECTION ASSAY - IC50): 8.63 µM
Cc1ccc(-n2c(SCC(=O)NCCN3C(=O)S/C(=C\c4ccc(C(C)(C)C)cc4)C3=O)nc3sc4c(c3c2=O)CCCC4)c(C)c1 | > 10 | > 10 | 
Cc1cc(Nc2ccc(C(c3ccc(C(=O)O)cc3)c3ccc(Nc4cc(C)nn4-c4ccccc4)nc3Cl)c(Cl)n2)n(-c2ccccc2)n1 | > 10 |  | IC50 (PBLUC_HILL_SLOPE 2.61, PBLUC_R_SQUARED 0.324, read-out: LUCIFERASE INFECTION ASSAY - IC50): 6.2 µM
Cc1c(C(=O)N/N=C/c2c3ccccc3c(Cl)c3ccccc23)nc2ccccn12 | > 10 | > 10 | 
C/C(c1cccs1)=[N+](/[O-])C(C)/C(=N/O)c1ccco1 (stereo not drawn) | > 10 | > 10 | 

SMILES | IC90 [µM] | IC50 [1] [µM] | also measured
COc1ccc2c(C)cc3nnc(SCCOc4ccccc4F)n3c2c1 | 5.11 |  | IC50 (PBLUC_HILL_SLOPE 752, PBLUC_R_SQUARED 0.219, read-out: LUCIFERASE INFECTION ASSAY - IC50): 5.09 µM
CCOc1cc(/C=C(\C#N)C(=O)c2cccc(OC)c2)cc(Cl)c1O | > 10 | > 10 | 
CC(C)(C)c1ccc(-c2cnc3cnc(-c4ccc(N)nc4)cn23)cc1 | 4.41 |  | IC50 (PBLUC_HILL_SLOPE 8.01, PBLUC_R_SQUARED 0.801, read-out: LUCIFERASE INFECTION ASSAY - IC50): 3.35 µM
CC/N=c1\scc(-c2ccc(Cl)cc2)n1/N=C/c1ccc[nH]1 | 0.416 |  | IC50 (PBLUC_HILL_SLOPE 20.7, PBLUC_R_SQUARED 0.413, read-out: LUCIFERASE INFECTION ASSAY - IC50): 0.374 µM
CC(Oc1ccc(-c2ccc(C#N)cc2)cc1)C(=O)C12CC3CC(CC(C3)C1)C2 (stereo not drawn) | > 10 |  | IC50 (PBLUC_HILL_SLOPE 2.77, PBLUC_R_SQUARED 0.53, read-out: LUCIFERASE INFECTION ASSAY - IC50): 5.65 µM
Cc1n[n+]2c3c(cnc2s1)CC/C3=C/c1ccccc1 | 9.79 |  | IC50 (HEPG2TOX_HILL_SLOPE 2.96, HEPG2TOX_R_SQUARED 0.5, PBLUC_HILL_SLOPE 7.3, PBLUC_R_SQUARED 0.698, read-out: LUCIFERASE INFECTION ASSAY - IC50): 7.25 µM
NS(=O)(=O)c1ccc(Nc2nc(-c3cc(F)ccc3F)cs2)cc1 | > 10 |  | IC50 (FFLUC_HILL_SLOPE 0.845, FFLUC_R_SQUARED 0.288, PBLUC_HILL_SLOPE 13.0, 1.97, PBLUC_R_SQUARED 0.591, 0.616, read-out: LUCIFERASE INFECTION ASSAY - IC50): 8.85 µM
COc1ccc(-c2cc([N+](=O)[O-])ccc2OCC(=O)NC(=O)NCCC(C)C)cc1 | > 10 |  | IC50 (PBLUC_HILL_SLOPE 8.25, PBLUC_R_SQUARED 0.103, read-out: LUCIFERASE INFECTION ASSAY - IC50): 9.42 µM
Cc1ccc(/C=C/C(=O)NC2CCCc3ccccc32)o1 (stereo not drawn) | > 10 |  | IC50 (FFLUC_HILL_SLOPE 16.2, FFLUC_R_SQUARED 0.0896, read-out: LUCIFERASE INFECTION ASSAY - IC50): > 10 µM
O=C(Nc1ccc(SC(F)(F)F)cc1)N1CCN(c2nc(-c3ccccc3)ns2)CC1 | > 7.09 |  | IC50 (HEPG2TOX_HILL_SLOPE 7.08, HEPG2TOX_R_SQUARED 0.48, PBLUC_HILL_SLOPE 1.8, PBLUC_R_SQUARED 0.469, read-out: LUCIFERASE INFECTION ASSAY - IC50): 3.31 µM
Cn1cc(CN2CC=C(c3ccccc3)CC2)c2ccccc21 | > 10 |  | IC50 (HEPG2TOX_HILL_SLOPE 7.11, HEPG2TOX_R_SQUARED 0.283, PBLUC_HILL_SLOPE 12.5, PBLUC_R_SQUARED 0.246, read-out: LUCIFERASE INFECTION ASSAY - IC50): 9.52 µM
COC(=O)Cc1[nH]n(-c2nc3ccccc3s2)c(=O)c1C(C)=NCCO | 3.67 |  | IC50 (FFLUC_HILL_SLOPE 1.26, FFLUC_R_SQUARED 0.909, HEPG2TOX_HILL_SLOPE 2.15, HEPG2TOX_R_SQUARED 0.817, PBLUC_HILL_SLOPE 1.27, PBLUC_R_SQUARED 0.77, read-out: LUCIFERASE INFECTION ASSAY - IC50): 0.646 µM
COc1cc(OC)cc(OCC(O)Cn2ccnc2)c1 (stereo not drawn) | > 11.9 | > 11.9 | 
COc1ccc(Nc2cc3[nH]c(-c4cccc(C(F)(F)F)c4)cc3cn2)c(C)c1 | > 10 |  | IC50 (HEPG2TOX_HILL_SLOPE 8.02, HEPG2TOX_R_SQUARED 0.0629, PBLUC_HILL_SLOPE 11.9, PBLUC_R_SQUARED 0.386, read-out: LUCIFERASE INFECTION ASSAY - IC50): 8.34 µM
CC1N(C)c2ccc(/C=C/c3cc[n+](C)cc3)cc2C1(C)C (stereo not drawn) | 4.04 | 3.32 | 
CC(C)(C)c1cc(=O)n(-c2nc3ccc(Cl)cc3s2)[nH]1 | > 10.7 | > 10.7 | 
CCC(C)c1ccc(NC(=O)CN(Cc2ccccc2)S(=O)(=O)c2ccc(C)c(C)c2)cc1 (stereo not drawn) | > 10 | > 10 | 
c1ccc(OCCCN2CCC(c3nc4ccccc4s3)CC2)cc1 | > 9.36 |  | IC50 (PBLUC_HILL_SLOPE 3.81, PBLUC_R_SQUARED 0.48, read-out: LUCIFERASE INFECTION ASSAY - IC50): 7.8 µM
O=C(/C=C/c1cccc(NC(=O)c2ccccc2Cl)c1)c1ccc2c(c1)-c1ccccc1C2 | > 10 | > 10 | 
CCCc1cc(=O)n2ncc(-c3ccc(Cl)cc3)c2[nH]1 | 3.65 |  | IC50 (HEPG2TOX_HILL_SLOPE 1.31, HEPG2TOX_R_SQUARED 0.875, PBLUC_HILL_SLOPE 1.68, PBLUC_R_SQUARED 0.622, read-out: LUCIFERASE INFECTION ASSAY - IC50): 0.989 µM
Cc1nc(NCc2ccc(Cl)cc2)c2cc(-c3ccccc3)sc2n1 | > 10 |  | IC50 (HEPG2TOX_HILL_SLOPE 0.0996, HEPG2TOX_R_SQUARED 0.0438, PBLUC_HILL_SLOPE 16.2, PBLUC_R_SQUARED 0.0193, read-out: LUCIFERASE INFECTION ASSAY - IC50): 9.43 µM
CC(=O)N1CCC(C(=O)Nc2cc(C(F)(F)F)ccc2NC2CCCCC2)CC1 | > 10 | > 10 | 
